Measured values published in patent publication US6953800B2, “Use of selective antagonists of the α1B-adrenergic receptor for improvement of sexual dysfunction” (Recordati S.A. Chemical, priority 1999, dated 2005).
pKi: −log10 of the molar value. “And” between values parts separate entries of the source, which are not always exact repeats. Identical values can stand only once.

Tests used:
bovine α1a-adrenoceptor = target: T1, bovine α1a-adrenoceptor (Bos taurus, UniProt P18130); assay: [3H]Prazosin binding, bovine α1a-adrenoceptor in COS-7 cell membranes; details: bovine α1a, COS-7 membranes; read-out: Affinity (Ki) α1a, animal cloned receptors
T1 construct: expressed in transfected cells; host or cells: COS-7 cells (transient), membranes
T1 sequence (P18130 1-466): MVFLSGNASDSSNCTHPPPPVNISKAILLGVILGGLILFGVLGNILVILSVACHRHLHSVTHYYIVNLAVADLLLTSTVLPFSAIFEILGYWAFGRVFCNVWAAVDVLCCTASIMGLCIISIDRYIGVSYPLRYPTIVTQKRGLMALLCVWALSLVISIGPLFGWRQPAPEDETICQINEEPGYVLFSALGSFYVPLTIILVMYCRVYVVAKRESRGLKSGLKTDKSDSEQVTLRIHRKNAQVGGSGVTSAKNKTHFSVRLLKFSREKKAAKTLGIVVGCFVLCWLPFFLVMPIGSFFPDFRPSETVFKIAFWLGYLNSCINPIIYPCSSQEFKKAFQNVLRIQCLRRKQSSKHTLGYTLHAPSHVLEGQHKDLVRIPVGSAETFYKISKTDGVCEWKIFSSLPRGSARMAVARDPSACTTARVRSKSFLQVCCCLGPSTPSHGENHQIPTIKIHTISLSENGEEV
Description: (§1) The incubation was stopped by addition of ice-cold Tris buffer and rapid filtration through 0.2% polyethyleneimine pretreated Whatman GF/B or Schleicher & Schuell GF52 filters.
(§2) Data are expressed as mean Ki. All patents and other references cited herein are incorporated by reference in their entirety.

hamster α1b-adrenoceptor = target: T2, hamster α1b-adrenoceptor (Mesocricetus auratus, UniProt P18841); assay: [3H]Prazosin binding, hamster α1b-adrenoceptor in COS-7 cell membranes; details: COS-7 membranes, read-out: Affinity (Ki) α1b, animal cloned receptors
T2 construct: expressed in transfected cells; host or cells: COS-7 cells (transient), membranes
T2 sequence (P18841 1-515): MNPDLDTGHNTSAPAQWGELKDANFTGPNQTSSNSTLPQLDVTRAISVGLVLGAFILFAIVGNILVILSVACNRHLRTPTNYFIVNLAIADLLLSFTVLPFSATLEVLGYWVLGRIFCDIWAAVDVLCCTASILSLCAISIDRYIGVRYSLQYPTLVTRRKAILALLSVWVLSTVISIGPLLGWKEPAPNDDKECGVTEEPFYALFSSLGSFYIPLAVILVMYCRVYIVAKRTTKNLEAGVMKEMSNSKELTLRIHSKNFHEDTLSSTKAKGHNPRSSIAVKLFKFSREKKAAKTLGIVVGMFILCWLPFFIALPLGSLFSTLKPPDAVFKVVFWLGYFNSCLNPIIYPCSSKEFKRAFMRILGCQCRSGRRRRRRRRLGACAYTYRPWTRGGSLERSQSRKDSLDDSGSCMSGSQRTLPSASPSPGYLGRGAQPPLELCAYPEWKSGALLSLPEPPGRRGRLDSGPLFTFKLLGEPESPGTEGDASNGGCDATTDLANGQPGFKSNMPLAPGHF
Description: as §1, §2

rat α1d-adrenoceptor = target: T3, rat α1d-adrenoceptor (Rattus norvegicus, UniProt P23944); assay: [3H]Prazosin binding, rat α1d-adrenoceptor in COS-7 cell membranes; details: COS-7 membranes, read-out: Affinity (Ki) α1d, animal cloned receptors
T3 construct: expressed in transfected cells; host or cells: COS-7 cells (transient), membranes
T3 sequence (P23944 1-561): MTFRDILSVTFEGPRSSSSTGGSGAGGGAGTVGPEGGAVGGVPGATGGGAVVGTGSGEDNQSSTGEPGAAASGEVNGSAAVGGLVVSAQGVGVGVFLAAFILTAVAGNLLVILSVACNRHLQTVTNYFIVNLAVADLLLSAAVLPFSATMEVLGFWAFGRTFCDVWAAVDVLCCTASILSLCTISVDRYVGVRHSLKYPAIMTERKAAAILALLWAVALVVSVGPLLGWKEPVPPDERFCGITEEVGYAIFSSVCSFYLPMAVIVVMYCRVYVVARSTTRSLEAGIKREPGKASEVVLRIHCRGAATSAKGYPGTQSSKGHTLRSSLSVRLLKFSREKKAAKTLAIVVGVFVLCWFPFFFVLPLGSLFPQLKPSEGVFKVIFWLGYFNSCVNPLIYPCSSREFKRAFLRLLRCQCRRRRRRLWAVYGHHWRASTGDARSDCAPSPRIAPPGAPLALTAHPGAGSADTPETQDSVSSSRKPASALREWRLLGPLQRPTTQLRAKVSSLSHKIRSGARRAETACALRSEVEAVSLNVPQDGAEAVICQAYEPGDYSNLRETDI
Description: as §1, §2

anaesthetised rats = assay: Intracavernous and blood pressure recording in rats; assay type: in vivo, rat
Description: Rats were anaesthetised by an intraperitoneal injection of urethane (1.5 g/kg in sterile saline) and placed on an homeothermic blanket. Their temperature was maintained at 37° C. Rats were tracheotomized to facilitate spontaneous breathing and to prevent aspiration of saliva. A catheter filled with heparinized saline (25 IU/ml) was placed into the carotid to record mean blood pressure (BP, mmHg). The penis was desheathed and the corpora cavernosa were exposed. A 25-gauge stainless-steel needle was inserted into one corpus cavernosum to record intracavernous pressure (ICP in mmHg). […] Pressure catheters were connected to pressure transducers (Model 750, Elcomatic Ltd, Glasgow, UK).
Following a resting period of 10 minutes, the compound solvent was delivered intracavernously (50 μl/injection). Then, increasing doses of one compound were injected every ten minutes by the same route. Five injections (one solvent plus four cumulative doses) were performed in each rat, and five rats were used for the study of one compound. For each injection and for each compound, mean BP averaged over the ten minutes following the injection was measured. The maximal ICP value reached during the ten-minute period following an injection was also recorded. In these experiments, all the compounds tested were dissolved and diluted in propylene glycol-Sorensen solvent.

anaesthetised dogs = assay: Intracavernous and blood pressure recording in dogs
Description: Male beagle dogs were anaesthetised with pentobarbital sodium (i.v. Nembutal, 35 mg/kg for induction and 4 mg/kg/h for maintenance) and intubated with an endotracheal cuffed tube to facilitate free ventilation. A collateral of the left femoral vein was cannulated with a PE catheter for infusion of the anaesthetic. Systemic BP was monitored via a Mikro-tip 6F (Millar Instruments) pressure transducer introduced into the aortic arch through the right common carotid artery. ICP was measured by means of a 20-gauge needle placed into the left or right corpus cavernosum and the same needle was used for intracavernous injection of the drugs. The needle was attached to a catheter filled with heparinized saline (25 IU/mL). […] The compounds to be tested were injected intracavernously in a volume of 0.5 ml and, after each injection, the needle was flushed with 0.5 ml of saline. The vehicles for compound dissolution were tested before the first dose of each drug. The compounds were administered in a cumulative way, with a 30-minute interval between doses. ICP (mmHg) was measured at the peak effect after the administration of the compounds. The duration of tumescence (DT, min) was measured from the beginning of the rise of ICP over its basal value up to the return to baseline. The systolic blood pressure and diastolic blood pressure (mmHg) were measured at the peak effect after the administration of compounds, in order to evaluate the effects of the compounds on BP independently from the effects on ICP. Moreover, the systolic blood pressure was measured at the time of maximal ICP value after intracavernous injection, to evaluate the ICP/BP ratios. […] The data were reported as mean ±s.e. of the mean, or percent variation (±s.e.) of the basal values.

Work on `COc1cc2nc(N3CCN(C(=O)COc4c(OC)cccc4C(C)C)CC3)nc(N)c2cc1OC.Cl` [Compound A, 4-Amino-6,7-dimethoxy-2-[4-[(2-isopropyl-6-methoxyphenoxy)acetyl]-1-piperazinyl]quinazoline hydrochloride] yielded a pKi (bovine α1a-adrenoceptor) of 8.12, a pKi (hamster α1b-adrenoceptor) of 9.35 and a pKi (rat α1d-adrenoceptor) of 7.99. The BP (anaesthetised rats; 10 μg/kg intracavernous) was 91.3 ± 9.4 mmHg, the ICP (anaesthetised rats; 10 μg/kg intracavernous) was 36.8 ± 8.7 mmHg and the BP (anaesthetised rats; 30 μg/kg intracavernous) was 82.7 ± 11.0 mmHg. It also gave an ICP (anaesthetised rats; 30 μg/kg intracavernous) of 37.6 ± 10.1 mmHg, a BP (anaesthetised rats; 100 μg/kg intracavernous) of 74.8 ± 9.3 mmHg and an ICP (anaesthetised rats; 100 μg/kg intracavernous) of 38.7 ± 12.3 mmHg. The BP (anaesthetised rats; 300 μg/kg intracavernous) was 72.5 ± 5.6 mmHg, the ICP (anaesthetised rats; 300 μg/kg intracavernous, hydrochloride) was 50.6 mmHg and 50.6 ± 13.7 mmHg and the “effect on ICP (in words)” value (anaesthetised rats; intracavernous injection) was “dose-dependently increased ICP”. For the same molecule, the “decrease of blood pressure accompanying the ICP/BP increase (FIG. 1)” value (anaesthetised rats; intracavernous, 10-300 μg) was at most 20%, the “decrease of BP” value (anaesthetised rats; intracavernous, over the dose range up to 300 μg/kg) was “about 30%” and the DBP (anaesthetised dogs; 3 μg/kg intracavernous) was 116.0 ± 5.9 mmHg. For the same molecule, the “DT (duration of tumescence)” value (anaesthetised dogs; 3 μg/kg intracavernous) was 1.2 ± 0.2 min, the ICP (anaesthetised dogs; 3 μg/kg intracavernous) was 26.7 ± 8.7 mmHg and the SBP (anaesthetised dogs; 3 μg/kg intracavernous) was 155.3 ± 5.5 mmHg. For the same molecule, the “SBPICP (SBP at the time of maximal ICP value)” value (from here on “SBPICP”) (anaesthetised dogs; 3 μg/kg intracavernous) was 156.7 ± 6.8 mmHg, the “increase of ICP in comparison with basal ICP values” (anaesthetised dogs; 3 μg/kg intracavernous) was 12 mmHg and the DBP (anaesthetised dogs; 10 μg/kg intracavernous) was 120.0 ± 5.9 mmHg. For the same molecule, the “DT (duration of tumescence)” value (anaesthetised dogs; 10 μg/kg intracavernous) was 15.0 ± 8.4 min, the ICP (anaesthetised dogs; 10 μg/kg intracavernous) was 75.0 ± 32.4 mmHg and the SBP (anaesthetised dogs; 10 μg/kg intracavernous) was 157.5 ± 6.6 mmHg. For the same molecule, the “SBPICP” value (anaesthetised dogs; 10 μg/kg intracavernous) was 158.5 ± 7.4 mmHg, the DBP (anaesthetised dogs; 30 μg/kg intracavernous) was 117.5 ± 6.5 mmHg and the “DT (duration of tumescence)” value (anaesthetised dogs; 30 μg/kg intracavernous) was 8.3 ± 3.2 min. For the same molecule, the ICP (anaesthetised dogs; 30 μg/kg intracavernous) was 91.5 ± 26.9 mmHg, the SBP (anaesthetised dogs; 30 μg/kg intracavernous) was 154.0 ± 6.6 mmHg and the “SBPICP” value (anaesthetised dogs; 30 μg/kg intracavernous) was 156.5 ± 5.9 mmHg. For the same molecule, the DBP (anaesthetised dogs; 100 μg/kg intracavernous) was 113.0 ± 7.3 mmHg, the “DT (duration of tumescence)” value (anaesthetised dogs; 100 μg/kg intracavernous) was 13.7 ± 5.6 min and the ICP (anaesthetised dogs; 100 μg/kg intracavernous) was 95.0 ± 23.3 mmHg. The SBP (anaesthetised dogs; 100 μg/kg intracavernous) was 147.5 ± 7.6 mmHg, the “SBPICP” value (anaesthetised dogs; 100 μg/kg intracavernous) was 148.5 ± 6.0 mmHg and the DBP (anaesthetised dogs; 300 μg/kg intracavernous) was 107.5 ± 7.4 mmHg. The ICP (anaesthetised dogs; 300 μg/kg intracavernous) was 111.0 ± 10.9 mmHg, the SBP (anaesthetised dogs; 300 μg/kg intracavernous) was 140.0 ± 7.4 mmHg and the “SBPICP” value (anaesthetised dogs; 300 μg/kg intracavernous) was 142.0 ± 6.5 mmHg. For the same molecule, the “increase of ICP in comparison with basal ICP values” (anaesthetised dogs; 300 μg/kg intracavernous) was 96.5 mmHg, the “duration of action compared with reference compounds” value (anaesthetised dogs; Compound B at the highest dose tested) was “higher than that of the reference compounds tested” and the “hypotension computed on diastolic blood pressure (change)” value (anaesthetised dogs; dose-dependent over 3-300 μg/kg) was −10 to −19 mmHg. For the same molecule, the “decrease of blood pressure accompanying the ICP/BP increase (FIG. 2)” value (anaesthetised dogs; intracavernous) was at most 20% and the “effect on ICP (in words)” value (anaesthetised dogs; intracavernous injection) was “dose-dependently increased ICP”.
